Source: the supplement of paper PMC10307832

Experiments:
Assay in all cases: relative viability (nuclei count vs DMSO), 5 days (fraction); higher = more cells survive
OSI-027 + AZD7762 = compound: COc1cccc2cc(-c3nc([C@H]4CC[C@H](C(=O)O)CC4)n4ncnc(N)c34)[nH]c12 [OSI-027] + NC(=O)Nc1cc(-c2cccc(F)c2)sc1C(=O)N[C@H]1CCCNC1 [AZD7762] (partner 0.2 µM)
How it was run: (§1)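 One day after seeding in 1536-well plates, lung cancer cell lines were dosed by pin tool. Dosing was either single-drug or a fixed anchor-drug dose plus five library-drug doses (not always all listed) in √10 steps. After 5 days, nuclei were stained in one fix-and-stain step and counted on 4× images, and relative viability is the nuclei count of treated wells over that of vehicle wells, given as the median of duplicate plates.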

Alpelisib + Crizotinib = compound: Cc1nc(NC(=O)N2CCC[C@H]2C(N)=O)sc1-c1ccnc(C(C)(C)C(F)(F)F)c1 [Alpelisib] + C[C@@H](Oc1cc(-c2cnn(C3CCNCC3)c2)cnc1N)c1c(Cl)ccc(F)c1Cl [Crizotinib] (partner 1 µM)
How it was run: as §1

OSI-027 + Palbociclib = compound: COc1cccc2cc(-c3nc([C@H]4CC[C@H](C(=O)O)CC4)n4ncnc(N)c34)[nH]c12 [OSI-027] + CC(=O)c1c(C)c2cnc(Nc3ccc(N4CCNCC4)cn3)nc2n(C2CCCC2)c1=O [Palbociclib] (partner 0.5 µM)
How it was run: as §1

Vemurafenib + Vorinostat = compound: CCCS(=O)(=O)Nc1ccc(F)c(C(=O)c2c[nH]c3ncc(-c4ccc(Cl)cc4)cc23)c1F [Vemurafenib] + O=C(CCCCCCC(=O)Nc1ccccc1)NO [Vorinostat] (partner 1 µM)
How it was run: as §1

Cell Line | relative viability (OSI-027 + AZD7762; first compound 0.01 µM) | relative viability (OSI-027 + AZD7762; first compound 0.03162 µM) | relative viability (OSI-027 + AZD7762; first compound 0.1 µM) | relative viability (OSI-027 + AZD7762; first compound 0.3162 µM) | relative viability (OSI-027 + AZD7762; first compound 1 µM) | relative viability (Alpelisib + Crizotinib; first compound 0.04 µM) | relative viability (Alpelisib + Crizotinib; first compound 0.1265 µM) | relative viability (Alpelisib + Crizotinib; first compound 0.4 µM) | relative viability (Alpelisib + Crizotinib; first compound 1.265 µM) | relative viability (Alpelisib + Crizotinib; first compound 4 µM) | relative viability (OSI-027 + Palbociclib; first compound 0.01 µM) | relative viability (OSI-027 + Palbociclib; first compound 0.03162 µM) | relative viability (OSI-027 + Palbociclib; first compound 0.1 µM) | relative viability (OSI-027 + Palbociclib; first compound 0.3162 µM) | relative viability (OSI-027 + Palbociclib; first compound 1 µM) | relative viability (Vemurafenib + Vorinostat; first compound 0.03162 µM) | relative viability (Vemurafenib + Vorinostat; first compound 0.1 µM) | relative viability (Vemurafenib + Vorinostat; first compound 0.3162 µM) | relative viability (Vemurafenib + Vorinostat; first compound 1 µM)
NCI-H1437 | 1.11 | 1.02 | 1.14 | 1 | 0.566 | 0.904 | 0.919 | 1 | 0.906 | 0.942 | 0.286 | 0.324 | 0.309 | 0.357 | 0.22 | 0.798 | 0.825 | 0.873 | 0.945
NCI-H1651 | 0.471 | 0.415 | 0.425 | 0.465 | 0.417 | 0.845 | 0.906 | 0.889 | 0.784 | 0.694 | 0.534 | 0.502 | 0.497 | 0.459 | 0.393 | 0.524 | 0.581 | 0.471 | 0.625
NCI-H1666 | 0.837 | 0.707 | 0.763 | 0.766 | 0.585 | 0.914 | 0.87 | 0.932 | 0.765 | 0.747 | 0.691 | 0.675 | 0.65 | 0.577 | 0.671 | 0.972 | 1.05 | 1.08 | 1.01
NCI-H1734 | 0.619 | 0.532 | 0.537 | 0.408 | 0.251 | 0.633 | 0.605 | 0.715 | 0.506 | 0.382 | 0.396 | 0.369 | 0.356 | 0.311 | 0.255 | 0.809 | 0.783 | 0.759 | 0.702
NCI-H1755 | 0.442 | 0.432 | 0.574 | 0.507 | 0.396 | 0.828 | 0.819 | 0.966 | 0.801 | 0.578 | 0.483 | 0.444 | 0.421 | 0.445 | 0.336 | 0.749 | 0.728 | 0.68 | 0.778
NCI-H1915 | 0.728 | 0.792 | 0.72 | 0.592 | 0.653 | 0.903 | 0.936 | 0.988 | 0.78 | 0.8 | 0.535 | 0.523 | 0.429 | 0.388 | 0.268 | 0.468 | 0.468 | 0.455 | 0.478
NCI-H1944 | 0.611 | 0.43 | 0.648 | 0.56 | 0.371 | 1.01 | 1.24 | 1.14 | 0.725 | 0.523 | 0.336 | 0.3 | 0.327 | 0.234 | 0.205 | 0.538 | – | 0.671 | 0.515
NCI-H1975 | 0.708 | 0.697 | 0.545 | 0.609 | 0.591 | 0.877 | 1.01 | 0.968 | 0.753 | 0.68 | 0.601 | 0.578 | 0.549 | 0.598 | 0.359 | 0.715 | 0.661 | 0.602 | 0.726
NCI-H1993 | 0.777 | 0.728 | 0.606 | 0.542 | 0.416 | 0.817 | 0.845 | 0.799 | 0.603 | 0.604 | 0.613 | 0.491 | 0.414 | 0.432 | 0.381 | 0.739 | – | 1.02 | 0.876
NCI-H2085 | 0.978 | 0.925 | 0.953 | 0.97 | 0.61 | 0.808 | 0.769 | 0.758 | 0.814 | 0.796 | 0.463 | 0.515 | 0.458 | 0.428 | 0.446 | 0.703 | 0.736 | 0.618 | 0.968
NCI-H2087 | 1.32 | 1.1 | 1.4 | 1.1 | 0.929 | 0.781 | 0.892 | 0.958 | 0.732 | 0.658 | 0.261 | 0.169 | 0.207 | 0.195 | 0.142 | 0.894 | 0.958 | 0.531 | 0.716
NCI-H2126 | 0.975 | 0.954 | 0.998 | 0.868 | 0.819 | 1.02 | 0.957 | 0.992 | 0.88 | 0.735 | 0.362 | 0.361 | 0.36 | 0.34 | 0.347 | 0.761 | 0.576 | 0.869 | 0.633
NCI-H2170 | 0.995 | 0.824 | 0.768 | 0.689 | 0.515 | 1.08 | 1.17 | 1.23 | 0.729 | 0.71 | 0.407 | 0.382 | 0.329 | 0.302 | 0.201 | 0.733 | – | 0.737 | 0.754
NCI-H2347 | 0.683 | 0.733 | 0.756 | 0.595 | 0.299 | 0.674 | 0.897 | 0.859 | 0.603 | 0.61 | 0.41 | 0.386 | 0.392 | 0.358 | 0.392 | 0.542 | 0.539 | 0.52 | 0.624
NCI-H2405 | 0.701 | 0.836 | 0.699 | 0.598 | 0.376 | 0.858 | 0.772 | 0.889 | 0.662 | 0.735 | 0.509 | 0.491 | 0.472 | 0.401 | 0.34 | 0.911 | 0.987 | – | 1.03
NCI-H3122 | 1.06 | 1.09 | 0.995 | 0.946 | 0.486 | 0.27 | 0.308 | 0.227 | 0.196 | 0.2 | 0.167 | 0.177 | 0.175 | 0.168 | 0.152 | 0.962 | 0.916 | 1.01 | 1.04
PC-3 [JPC-3] | 0.778 | 0.703 | 0.521 | 0.42 | 0.505 | 1.03 | 1.05 | 1.07 | 0.901 | 0.969 | 0.535 | 0.522 | 0.563 | 0.5 | 0.439 | – | – | 0.66 | 1.06
